Test results: publication PMC4340362 (ACS Chemical Biology, 2014)
Like-named read-outs stand apart in the source and are kept apart here.

System: MDA-MB-231 breast cancer cells
Test: Quantitative scratch-wound
Format: cell-based
Settings: Homo sapiens

C[C@@H]1O[C@@H](O[C@H]2C[C@@H](O)[C@]3(CO)[C@H]4[C@H](O)C[C@]5(C)[C@@H](C6=CC(=O)OC6)CC[C@]5(O)[C@@H]4CC[C@]3(O)C2)[C@H](O)[C@H](O)[C@H]1O [Compound 1, ouabain]
IC50 (MDA-MB-231, read-out: Cell migration IC50): 173 nM | IC50 (MDA-MB-231, read-out: cell migration): 173 nM
